# Laboratory results as given in patent US11707462B2, “Checkpoint kinase 1 (CHK1) inhibitors and uses thereof” (Boundless Bio, Inc., priority 2021, dated 2023).
# How the values were obtained:
# p-CHK1 (Ser345) = assay: AlphaLISA SureFire Ultra p-CHK1 (Ser345) cellular assay in HT29 cells; assay type: cell-based; conditions: Homo sapiens, HT-29, 16 h at 37° C.
# Method: Example B: AlphaLisa Cellular Assay
# Compound activity in cells was measured using an AlphaLISA® SureFire® Ultra™ p-CHK1 (Ser345) assay (Perkin Elmer, catalog no. ALSU-PCHK1-A10K). HT29 cells were cultured in McCoy 5A medium with 10% FBS and 1% penicillin-streptomycin and seeded to 96-well plates (Corning, catalog no. 3599). Compounds were serially diluted in DMSO over a 10-point dose range with 3-fold dilution and to each well containing cells was added compound solution. Plates were centrifuged at 1000 rpm for 30 seconds. Plates were incubated at 37° C. for 16 h. Supernatant was removed by flicking the plate against a paper towel. Wells were washed once with PBS solution. To each well was added freshly prepared lysis buffer and plates were agitated on a plate shaker at 400 rpm for 30 min. The 96-well cell plates were centrifuged at 1500 rpm for 1 minute. From each well was transferred 10 μL of the lysates to a 384-well Optiplate™ (Perkin Elmer, catalog no. 6007290). To each well was added Acceptor Mix (5 μL) and the plates were sealed and wrapped in foil. Plates were agitated on a plate shaker for 2 minutes, then incubated at room temperature for 1 h. To each well was added Donor Mix (5 μL) and the plates were sealed and wrapped in foil. Plates were agitated on a plate shaker for 2 minutes, then incubated at room temperature for 1 h. AlphaLisa signal was read on an EnVision multimode plate reader (Perkin Elmer). Data were fit to dose-response curves using XLfit (IDBS, Surrey, UK) or Prism (GraphPad Software, La Jolla, Calif., US) to calculate IC50 values for each compound tested.
# [1] = target: T1, Full-length human Chk1 protein (Homo sapiens, UniProt O14757); assay: Kinase HTRF biochemical assay (HTRF KinEASE), Chk1 enzyme activity; conditions: full-length human Chk1, ATP 1 mM, 60 minutes at room temperature
# T1 construct: purchased Carna Biosciences, Inc. 02-117
# T1 sequence (O14757 1-476): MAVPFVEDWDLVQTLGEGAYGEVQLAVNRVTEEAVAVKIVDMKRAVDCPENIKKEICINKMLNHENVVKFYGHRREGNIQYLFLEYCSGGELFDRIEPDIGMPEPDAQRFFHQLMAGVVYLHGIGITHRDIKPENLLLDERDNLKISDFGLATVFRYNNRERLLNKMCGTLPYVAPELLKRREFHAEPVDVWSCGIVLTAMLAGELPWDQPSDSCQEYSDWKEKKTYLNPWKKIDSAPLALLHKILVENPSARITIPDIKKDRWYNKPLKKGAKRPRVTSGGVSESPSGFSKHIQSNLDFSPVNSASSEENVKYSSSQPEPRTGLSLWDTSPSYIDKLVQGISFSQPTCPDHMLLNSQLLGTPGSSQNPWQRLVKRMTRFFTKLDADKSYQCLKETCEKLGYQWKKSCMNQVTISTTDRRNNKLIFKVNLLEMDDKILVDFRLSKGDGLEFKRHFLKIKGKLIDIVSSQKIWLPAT
# Method: Example A: Kinase HTRF Biochemical Assay
# Chk1 enzyme activity was measured using an HTRF KinEASE assay (Cisbio, catalog no. 62ST1PEC). Full-length human Chk1 protein (GenBank accession number NP_001265.1) was obtained from Carna Biosciences, Inc. (Kobe, Japan, catalog no. 02-117). The enzyme reaction was carried out in assay buffer containing (final concentrations): Chk1 enzyme (0.012 ng/μL), MgCl2 (5 mM) and DTT (1 mM). To determine compound dose response, DMSO stock solutions were serially diluted in a 10-point concentration series in duplicate. Compound solution (50 nL) was added to 384-well assay plates (Greiner, catalog no. 784075). To each well containing compound solution was added assay buffer solution (5 μL). Plates were centrifuged at 1000 rpm for 1 minute, then incubated at room temperature for 10 minutes. The reaction was started by addition of substrate buffer (5 μL/well) containing (final concentrations): STK substrate 1-biotin (120 nM) and ATP (1 mM). Assay plates were centrifuged at 1000 rpm for 1 minute, then incubated at room temperature for 60 minutes. The reaction was stopped by addition of detection buffer (Cisbio, 10 μL) containing (final concentrations): STK antibody-cryptate (0.25 nM) and streptavidin-XL665 (7.5 nM). Plates were centrifuged at 1000 rpm for 1 minute, then incubated at 25° C. for 2 hours. HTRF signal was read on an EnVision multimode plate reader […] in HTRF mode. Data were fit to dose-response curves using XLfit (IDBS, Surrey, UK) or Prism (GraphPad Software, La Jolla, Calif., US) to calculate IC50 values for each compound tested.
Structure (SMILES),IC50 [1] [nM],IC50 (p-CHK1 (Ser345)) [nM]
"N#Cc1cnc(Nc2cc(-c3ccccc3O[C@@H]3CC[C@@H](N)C3)[nH]n2)cn1 (stereo in doubt) [Example 1-37, 5-((5-(2-(((1R,3R)-3-aminocyclopentyl)oxy)phenyl)-1H-pyrazol-3-yl)amino)pyrazine-2-carbonitrile]",100 to 500,> 1000
"N#Cc1cnc(Nc2cc(-c3ncccc3O[C@@H]3CC[C@@H](N)C3)[nH]n2)cn1 (stereo in doubt) [Example 1-59, 5-((5-(3-(((1R,3R)-3-aminocyclopentyl)oxy)pyridin-2-yl)-1H-pyrazol-3-yl)amino)pyrazine-2-carbonitrile]",100 to 500,> 1000
"COc1cccc(O[C@H]2CC[C@H](N)CC2)c1-c1cc(Nc2cnc(C#N)cn2)n[nH]1 [Example 1-1, 5-((5-(2-(((lr,4r)-4-aminocyclohexyl)oxy)-6-methoxyphenyl)-1H-pyrazol-3-yl)amino)pyrazine-2-carbonitrile]",≤ 10,50 to 100
"COc1cccc(O[C@H]2C[C@@H](N)C2)c1-c1cc(Nc2cnc(C#N)cn2)n[nH]1 [Example 1-4, 5-((5-(2-((1s,3s)-3-aminocyclobutoxy)-6-methoxyphenyl)-1H-pyrazol-3-yl)amino)pyrazine-2-carbonitrile]",100 to 500,> 1000
"COc1cccc(O[C@H]2C[C@H](N)C2)c1-c1cc(Nc2cnc(C#N)cn2)n[nH]1 [Example 1-5, 5-((5-(2-((1r,3r)-3-aminocyclobutoxy)-6-methoxyphenyl)-1H-pyrazol-3-yl)amino)pyrazine-2-carbonitrile]",≤ 10,≤ 50
"COc1cccc(O[C@@H]2CC[C@H](N)C2)c1-c1cc(Nc2cnc(C#N)cn2)n[nH]1 [Example 1-7, 5-((5-(2-(((1R,3S)-3-aminocyclopentyl)oxy)-6-methoxyphenyl)-1H-pyrazol-3-yl)amino)pyrazine-2-carbonitrile]",≤ 10,≤ 50
"COc1cccc(O[C@@H]2CC[C@@H](N)C2)c1-c1cc(Nc2cnc(C#N)cn2)n[nH]1 [Example 1-8, 5-((5-(2-(((1R,3R)-3-aminocyclopentyl)oxy)-6-methoxyphenyl)-lH-pyrazol-3-yl)amino)pyrazine-2-carbonitrile]",≤ 10,≤ 50
"N#Cc1cnc(Nc2cc(-c3ccccc3O[C@H]3C[C@H](N)C3)[nH]n2)cn1 [Example 1-9, 5-((5-(2-((1r,3r)-3-aminocyclobutoxy)phenyl)-1H-pyrazol-3-yl)amino)pyrazine-2-carbonitrile]",10 to 100,100 to 500
"N#Cc1cnc(Nc2cc(-c3ccccc3O[C@H]3C[C@@H](N)C3)[nH]n2)cn1 [Example 1-10, 5-((5-(2-((1s,3s)-3-aminocyclobutoxy)phenyl)-1H-pyrazol-3-yl)amino)pyrazine-2-carbonitrile]",100 to 500,> 1000
"COc1cccc(O[C@H]2CC[C@@H](N)CC2)c1-c1cc(Nc2cnc(C#N)cn2)n[nH]1 [Example 1-11, 5-((5-(2-(((1s,4s)-4-aminocyclohexyl)oxy)-6-methoxyphenyl)-1H-pyrazol-3-yl)amino)pyrazine-2-carbonitrile]",10 to 100,100 to 500
"CCOc1cccc(O[C@H]2C[C@H](N)C2)c1-c1cc(Nc2cnc(C#N)cn2)n[nH]1 [Example 1-12, 5-((5-(2-((1r,3r)-3-aminocyclobutoxy)-6-ethoxyphenyl)-1H-pyrazol-3-yl)amino)pyrazine-2-carbonitrile]",≤ 10,100 to 500
"N#Cc1cnc(Nc2cc(-c3c(F)cccc3O[C@H]3C[C@H](N)C3)[nH]n2)cn1 [Example 1-13, 5-((5-(2-((1r,3r)-3-aminocyclobutoxy)-6-fluorophenyl)-1H-pyrazol-3-yl)amino)pyrazine-2-carbonitrile]",10 to 100,100 to 500
"COc1cc(F)cc(O[C@H]2C[C@H](N)C2)c1-c1cc(Nc2cnc(C#N)cn2)n[nH]1 [Example 1-14, 5-((5-(2-((1r,3r)-3-aminocyclobutoxy)-4-fluoro-6-methoxyphenyl)-1H-pyrazol-3-yl)amino)pyrazine-2-carbonitrile]",≤ 10,≤ 50
"CN[C@H]1C[C@H](Oc2cccc(OC)c2-c2cc(Nc3cnc(C#N)cn3)n[nH]2)C1 [Example 1-16, 5-((5-(2-methoxy-6-((1r,3r)-3-(methylamino)cyclobutoxy)phenyl)-1H-pyrazol-3-yl)amino)pyrazine-2-carbonitrile]",10 to 100,≤ 50

# Now from value to molecule, other results behind:
IC50 [1] [nM],Structure (SMILES),IC50 (p-CHK1 (Ser345)) [nM]
100 to 500,"N#Cc1cnc(Nc2cc(-c3c(F)cccc3O[C@@H]3CCC[C@@H]3N)[nH]n2)cn1 [Example 3-39, 5-((5-(2-(((1R,2S)-2-aminocyclopentyl)oxy)-6-fluorophenyl)-1H-pyrazol-3-yl)amino)pyrazine-2-carbonitrile]",–
100 to 500,"N#Cc1cnc(Nc2cc(-c3c(F)cccc3OC3CC4(CC(N)C4)C3)[nH]n2)cn1 (stereo not shown) [Example 3-41, 5-((5-(2-((6-aminospiro[3.3]heptan-2-yl)oxy)-6-fluorophenyl)-1H-pyrazol-3-yl)amino)pyrazine-2-carbonitrile]",–
100 to 500,"Cc1ccc(O[C@H]2CC[C@@H](N)C2)c(-c2cc(Nc3cnc(C#N)cn3)n[nH]2)n1 [Example 3-43, 5-((5-(3-(((1S,3R)-3-aminocyclopentyl)oxy)-6-methylpyridin-2-yl)-1H-pyrazol-3-yl)amino)pyrazine-2-carbonitrile]",–
> 1000,"Cc1nc(-c2cc(Nc3cnc(C(N)=O)cn3)n[nH]2)c(O[C@@H]2CC[C@H](N)C2)cc1F [Example 3-51, 5-((5-(3-(((1R,3S)-3-aminocyclopentyl)oxy)-5-fluoro-6-methylpyridin-2-yl)-1H-pyrazol-3-yl)amino)pyrazine-2-carboxamide]",–
100 to 500,"Cc1nc(-c2cc(Nc3cnc(C#N)cn3)n[nH]2)c(O[C@@H]2CC[C@H](N)C2)cc1Cl [Example 3-52, 5-((5-(3-(((1R,3S)-3-aminocyclopentyl)oxy)-5-chloro-6-methylpyridin-2-yl)-1H-pyrazol-3-yl)amino)pyrazine-2-carbonitrile]",–
> 1000,"Cc1cc(Cl)c(O[C@@H]2CC[C@H](N)C2)c(-c2cc(Nc3cnc(C#N)cn3)n[nH]2)n1 [Example 3-53, 5-((5-(3-(((1R,3S)-3-aminocyclopentyl)oxy)-4-chloro-6-methylpyridin-2-yl)-1H-pyrazol-3-yl)amino)pyrazine-2-carbonitrile]",–
≤ 10,"N#Cc1cnc(Nc2cc(-c3nc(C(F)F)ccc3O[C@@H]3CC[C@H](N)C3)[nH]n2)cn1 [Example 3-54, 5-((5-(3-(((1R,3S)-3-aminocyclopentyl)oxy)-6-(difluoromethyl)pyridin-2-yl)-1H-pyrazol-3-yl)amino)pyrazine-2-carbonitrile]",–
≤ 10,"COc1cccc(OCC2CC2N)c1-c1cc(Nc2cnc(C#N)cn2)n[nH]1 (stereo not shown) [Example 3-55, 5-((5-(2-((2-aminocyclopropyl)methoxy)-6-methoxyphenyl)-1H-pyrazol-3-yl)amino)pyrazine-2-carbonitrile]",–
100 to 500,"COc1ccc(Cl)c(O[C@@H]2CC[C@H](N)C2)c1-c1cc(Nc2cnc(C#N)cn2)n[nH]1 [Example 4-4, 5-((5-(2-(((1R,3S)-3-aminocyclopentyl)oxy)-3-chloro-6-methoxyphenyl)-1H-pyrazol-3-yl)amino)pyrazine-2-carbonitrile]",–
